Laboratory results: patent US8481582B2, “1,3-dihydroimidazole-2-thione derivatives as inhibitors of dopamine-beta-hydroxylase” (Bial-Portela & CA, S.A., priority 2007, dated 2013)

Key:
[1] = test system: noradrenaline levels in the heart and parietal cortex; assay: Noradrenaline levels in heart and parietal cortex of mice 9 h after oral dosing; type: in vivo, Male NMRI mice; settings: oral gavage, 9 h post dose, FIG. 1, compared with prior art DβH inhibitors
Description: Male NMRI mice were obtained from Harlan-Interfauna (Spain) and were kept 10 per cage under controlled environmental conditions (12 h light/dark cycle and room temperature 22±1° C.). Food and tap water were allowed ad libitum and experimentation was performed during daylight hours.
At time=0 h, animals were administered with either test compounds (see FIG. 2) at a given dose or vehicle (water) delivered orally via gavage. At 9 h post dose, the animals were sacrificed by decapitation and heart (left atrium and left ventricle) and brain (parietal cortex) were isolated, weighed and stored in a volume of 0.2 M perchloric acid for 12 h at 4° C. in the dark. Post incubation, the resulting supernatants were collected by centrifuge filtration of incubates ([…]/10 min/˜5000 rpm, 4° C.). Supernatants were stored frozen at −80° C. until analysis. Quantification of dopamine and noradrenaline in supernatants was performed by high pressure liquid chromatography with electrochemical detection.

[2] = central as well as peripheral effects; cited from earlier work

Structure (SMILES)	effect on noradrenaline levels in the heart and parietal cortex (heart vs brain selectivity) [1]	crossing of the blood brain barrier (BBB) [2]
Fc1cc(F)c2c(c1)CC(n1c(CCNCc3ccccc3)c[nH]c1=S)CO2 (single isomer, unassigned) [formula X]	marked selectivity for the heart compared to the brain	–
NCc1c[nH]c(=S)n1[C@H]1CCc2c(F)cc(F)cc2C1 [nepicastat]	–	cross the blood brain barrier
